From patent US11135231B2, “Methods and compositions for prevention and treatment of Apicomplexan infections” (Tufts Medical Center, Inc., priority 2016, dated 2021)

Columns and labels:
Cryptosporidium parvum [1] = experiment: Host cell ATP assay (CellTiter-Glo) of C. parvum-infected Caco2 cells; assay type: cell-based; details: Caco-2, host cell ATP at 48 h post-infection, read-out: EC50 against C. parvum
Protocol: (§1) The effect of Tartrolon D/E on Cryptosporidium proliferation was evaluated by measuring host cell ATP levels (CellTiter-Glo® Luminescent Cell Viability Assay, Promega). Caco2 cells, having been infected with 2×10^5 C. parvum oocysts for 7 hours, were treated with dilutions of tartrolon D/E or DMSO (control) and cellular ATP levels were measured at the 48-hour time point post-infection.

Cryptosporidium parvum [2] = experiment: Morphology of C. parvum parasites after treatment (immunofluorescence); assay type: cell-based; details: 100 nM, 9 hours (FIG. 6B)
Source text: Insets (upper right in each image) are enlargements of boxed regions (dashes). Red: Rabbit α gp15 detected with Alexafluor 594-conjugated goat anti-rabbit IgG secondary antibody; blue: DAPI; scale=20 μm; insets=5 μm.
(§2) The morphology of treated parasites (FIG. 6B) was similar to that seen with T. gondii, in which the vacuole contained intact nuclei but no intact merozoites.

P. falciparum strains = experiment: 3H hypoxanthine incorporation assay of P. falciparum strains in human red blood cells; assay type: cell-based, Plasmodium falciparum
Protocol: The potency of the compounds of the invention against multi-drug resistant P. falciparum strains was tested. Parasites were cultured in 96-well plates in human red blood cells at 0.5% initial parasitemia for 72 hours in the presence of dilutions of tartrolon D/E (specifically, D2 as the starting material in FIG. 11A), purified tartrolon E (FIG. 11C), dihydroartemisinin (DHA, as a positive control in FIG. 11B), or DMSO (as a negative control). Parasites proliferation was then determined by ^3H hypoxanthine incorporation.
Specifically, parasitized red blood cells (pRBCs) were grown in 0.5% Albumax I (Thermo Fisher Scientific). Assays were set up in 96-well plates at 0.5% initial parasitemia and 0.5% hematocrit. Parasites were exposed to various concentrations of Tartrolon D or E and dihydroartemisinin (DHA) for 48 hours and then pulsed with 0.5 microcuries of tritium-labeled hypoxanthine Moravek (MT-700) for another 24 hours. At the end of 72 hours, assay plates were processed through an Inotech cell harvester and collected on Inotech glass fiber filters. Filters were transferred to Omniplate-96 cassettes (Perkin Elmer) and dried overnight at room temperature. About […] of Microscint-O scintillation cocktail (Perkin Elmer) was added to each well. Each well was counted for 2 minutes on a Packard Topcount scintillation counter. The uptake of radiolabeled hypoxanthine by compound-treated pRBCs was compared relative to uptake by DMSO solvent-treated controls. […] The starting material used as the active reagent in FIG. 11C was tartrolon E, purified as follows: extract from the bacterial pellet of the Teredinibacter turnerae T7901 was purified by reversed phase HPLC using diode array detection. A C18 column (Phenomenex CHO-7878, 100×10 mm) was employed with an isocratic mobile phase (85% acetontrile in water, 3.5 mL/min) to yield tartrolon E (4.7 mg, retention time 8 min).

[3] = system: three human tumor cell lines; details: cited from earlier work
Toxoplasma gondii = experiment: Immunofluorescence assay (anti-SAG1) of T. gondii-infected HFF cells; assay type: cell-based; details: T. gondii in HFF cells, FIG. 4B/4C
Protocol: FIGS. 2B and 2C show results for experiments that were conducted as for FIG. 2A, except that 24 hours after addition of the fractions, the infected HFF cells were processed for immunofluorescence assays. Briefly, infected and treated HFF cells that had been grown on coverslips in 6-well plates were fixed with methanol and parasites were detected using antibody to the SAG1 T. gondii surface antigen that was then detected with a red-fluorescence tagged secondary antibody. Host nuclei were stained with blue fluorescent marker DAPI (4′,6-diamidino-2-phenylindole). Host nuclei were clearly visible (blue) in all cell populations in both FIGS. 2B and 2C. Consistent with the trypan blue results, extensive red fluorescence was visible in cells treated with the control (DMSO) in FIG. 2C, meaning these cells were highly infected with the parasites.

T. gondii = experiment: MTS host cell viability readout of T. gondii-infected HFF cells; assay type: cell-based; details: Toxoplasma gondii, read-out: effective concentration at which 50% of the host cells survived (EC50)
Protocol: (§3) Readouts of host cell viability were used to quantify the dose-response of tartrolon D/E against T. gondii. Human foreskin fibroblast (HFF) cells, after having been infected by T. gondii for 24 hours, were treated with dilutions of tartrolon D/E that have been purified as in Example 2, or DMSO (control) for 72 hours. Host cell viability was then measured by MTS assay (CellTiter 96® AQueous One Solution Cell Proliferation Assay, Promega). The effective concentration at which 50% of the host cells survived (EC50) was about 5 nM (FIG. 4A).

HFF cell = HFF cell viability by MTS assay; assay type: cell-based, human; details: at the concentrations tested
Protocol: as §3
At the concentrations tested, tartrolon D/E had no effect on HFF cell viability as measured by MTS assay, indicating likely safety for in vivo administration. […] The aberration in the parasite morphology, stark when compared to untreated cell infection shown in the left columns of FIGS. 4B and 4C, provides direct evidence of irreversible inhibition and killing of the target parasite by compounds of the invention.

Caco2 cell = Caco2 cell viability; assay type: cell-based; details: concentrations up to 500 nM
Protocol: as §1, §2

[4] = system: Bovine Turbinate (BT) cells (ATCC #CRL-1390); experiment: Toxicity for mammalian cells, CellTiter Glo cell viability assay; assay type: cell-based; details: 24 hours
Protocol: Toxicity of the compounds of the invention for mammalian cells was determined. Bovine Turbinate (BT) cells (ATCC #CRL-1390) are a primary cell line (not a transformed cancer cell line) and were used to provide a preliminary evaluation of the toxicity of tartrolon D/E for mammalian cells. Briefly, BT cells were cultured in the presence of increasing starting concentrations of Tartrolon D/E for 24 hours. Cell proliferation was measured using CellTiter Glo Cell Viability Assay (Promega) and the data was analyzed with GraphPad Prism.

Plasmodium berghei = experiment: Plasmodium berghei-luciferase infection in mice, IVIS imaging; assay type: in vivo; details: IVIS image FIG. 14B, 1 of the 4 control mice
Protocol: Mice were infected with Plasmodium berghei expressing luciferase. 48 hours post infection mice were treated with tartrolon D/E (specifically, D2) initially solubilized in 2% methylcellulose and 0.5% Tween80 by intraperitoneal injection for 5 days, once per day. Control mice were treated with vehicle alone. Seven days after infection, mice were given luciferase substrate (150 mg/kg D-luciferin Potassium salt in PBS (Goldbio)) and imaged in an IVIS Lumina II to quantify level of infection.

[5] = system: apicomplexan parasites tested; experiment: Summary of in vitro EC50 against the apicomplexan parasites tested; assay type: cell-based; details: general range
Source text: For therapeutic purposes, the compounds of the invention may be formulated into a pharmaceutical composition, by mixing a therapeutically effective amount of the compound(s) of the invention with a pharmaceutically acceptable excipient, carrier, or diluent, and optionally in combination with one or more additional active agents, e.g., a second anti-parasitic agent. […] With an EC50 value as low as the picomolar to nanomolar level provides further confidence that the active ingredients, once administered in vivo, would likely achieve the expected anti-parasitic effects. According to an aspect of the present invention, tartrolon D and/or tartrolon E can be used as a therapeutic for treatment or prevention of human and animal diseases caused by various protozoan parasites.

SMILES: C[C@@H]1C(=O)C[C@@H](O)CC/C=C/C=C\CC[C@H](C)OC(=O)C(O)[C@]2(O)O[C@@H](CC[C@H]2C)[C@H](C)C(=O)C[C@@H](O)CC/C=C/C=C\CC[C@H](C)OC(=O)C(O)[C@]2(O)O[C@H]1CC[C@H]2C (some centres unmarked) [Tartrolon D, tartrolon D]
- EC50 (Cryptosporidium parvum [1]): ~12 nM
- morphology of treated parasites (Cryptosporidium parvum [2]): most parasites did not progress past the single cell stage
- EC50 (P. falciparum strains; Plasmodium falciparum, 3D7, Erythrocyte, parasite line 3D7): 0.11 nM
- EC50 (P. falciparum strains; Plasmodium falciparum, DD2, Erythrocyte, parasite line Dd2): 0.28 nM
- EC50 (P. falciparum strains; Plasmodium falciparum, Erythrocyte, parasite line 7G8): 0.18 nM
- EC50 (P. falciparum strains; Plasmodium falciparum, Erythrocyte, parasite line 2012 Indian Isolate (Goa)): 0.26 nM
- EC50 (P. falciparum strains; Plasmodium falciparum, Erythrocyte, parasite line D6): 0.14 nM
- EC50 (P. falciparum strains; Plasmodium falciparum, Erythrocyte, parasite line V1S): 0.31 nM
- EC50 (P. falciparum strains; Plasmodium falciparum, HB3, Erythrocyte, parasite line HB3): 0.13 nM
- EC50 (P. falciparum strains; Plasmodium falciparum, NF54, Erythrocyte, parasite line NF54): 0.2 nM
- EC50 (P. falciparum strains; Plasmodium falciparum, TM90C2A, Erythrocyte, parasite line TM90C2A): 0.16 nM
- EC50 (P. falciparum strains; parasite line 3D7): 0.19 nM
- cytotoxic activity [3]: strong cytotoxic activity

SMILES: C[C@@H]1C(=O)C[C@@H](O)CC/C=C/C=C\CC[C@H](C)OC(=O)C(O)[C@]2(O)O[C@@H](CC[C@H]2C)[C@H](C)C(=O)C[C@@H](O)CC/C=C/C=C\CC[C@H](C)OC(=O)C(O)[C@]2(O)O[C@H]1CC[C@H]2C (some centres unmarked) [Tartrolon D/E]
- parasite morphology (Toxoplasma gondii): aberrant morphology
- EC50 (T. gondii): ~5 nM
- effect on HFF cell viability (HFF cell): no effect
- effect on Caco2 cell viability (Caco2 cell): no effect
- toxic dose at which 50% of the cells were killed [4]: 1.14 µM
- treated mice with significant areas with no parasites (Plasmodium berghei): 4 of the 5
- EC50 [5]: 0.1 to 16 nM
